According to ChEMBL document CHEMBL5137025, “Tuberculosis Drug Discovery: Challenges and New Horizons” (J Med Chem, 2022):
Values after ≈ are worked out from the molar mass of the structure shown.

Legend:
[1] = system: Mycobacterium tuberculosis; assay type: functional, H37Rv; settings: dose 200 mg/kg; route po; time 10 day
[2] = system: Mycobacterium tuberculosis; assay type: functional; settings: H37Rv, time 6 day
HepG2 [3] = assay: Cytotoxicity against human HepG2 cells assessed as reduction in cell viability treated for 3 days by resazurin reduction microplate assay; assay type: functional; settings: HepG2, 72 h, time 3 day
[4] = system: Mycobacterium tuberculosis; assay: microbe, parasite or virus in culture; settings: H37Rv
Description: Antibacterial activity against Mycobacterium tuberculosis H37Rv assessed as inhibition of bacterial growth

[5] = Cytotoxicity against African green monkey Vero cells assessed as reduction in cell viability by MTT assay; assay type: toxicity, cell-based; settings: chlorocebus sabaeus
[6] = system: Mycobacterium tuberculosis; assay type: functional, H37Rv; settings: dose 100 mg/kg; time 8 weeks
HepG2 [7] = assay: Cytotoxicity against human HepG2 cells; assay type: functional
[8] = biological target: Voltage-gated inwardly rectifying potassium channel KCNH2 (Homo sapiens, UniProt Q12809)
[9] = Kinetic aqueous solubility of the compound incubated for 4.5 hrs by LC-MS/MS analysis; assay type: physicochemical; settings: buffer, read-out: Kinetic_solubility
[10] = Stability in mouse liver microsome assessed as half life by Reverse-phase HPLC analysis; assay type: ADME; settings: liver microsomes
[11] = Kinetic solubility of the compound; assay type: physicochemical; settings: read-out: Kinetic_solubility
[12] = system: Mycobacterium tuberculosis; assay type: functional, H37Rv; settings: dose 200 mg/kg; time 8 day
[13] = system: Mycobacterium tuberculosis; assay type: functional, H37Rv; settings: dose 40 mg/kg; route po; time 24 day
[14] = Inhibition of Mycobacterium tuberculosis ArgJ assessed as inhibition constant by measuring change in blue shift by ANS dye based displacement assay
[15] = system: Mycobacterium tuberculosis; assay type: functional; settings: H37Rv, 336 h, time 14 day
[16] = system: Mycobacterium tuberculosis; assay: Antibacterial activity against Mycobacterium tuberculosis Erdman in acute Mtb infection BALB/c mouse model assessed as reduction in log10 CFU at 35 mg/kg, ip for 8 days; assay type: functional; settings: time 8 day
[17] = system: Mycobacterium tuberculosis; assay: Antibacterial activity against Mycobacterium tuberculosis in chronic Mtb infection BALB/c mouse model assessed as reduction in log10 CFU in lungs at 100 mg/kg, po for 4 weeks; assay type: functional
[18] = Half life in BALB/c mouse at 100 mg/kg, po by LC/MS analysis; assay type: ADME, organism-based; settings: in vivo
[19] = Solubility of the compound; assay type: physicochemical
[20] = system: Mycobacterium tuberculosis; assay: Antibacterial activity against Mycobacterium tuberculosis in acute Mtb infection C57BL/6J mouse model assessed as reduction in log10 CFU in lungs at 350 mg/kg, po for 8 days; assay type: functional; settings: time 8 day
[21] = Half life in Swiss-Webster mouse at 200 mg/kg, po via gavage measured after 4 hrs; assay type: ADME, organism-based; settings: in vivo
[22] = system: Mycobacterium tuberculosis; assay type: functional, H37Rv; settings: dose 200 mg/kg; route po; time 8 weeks
physchem = settings: sodium phosphate buffer, pH 7.4
in vitro = settings: human, dermal fibroblasts
Description: Cytotoxicity against human dermal fibroblasts assessed as cell growth inhibition treated for 48 hrs by resazurin dye based assay

[23] = system: Mycobacterium tuberculosis; assay type: functional, H37Rv; settings: dose 200 mg/kg; route po; time 2 weeks
[24] = Half life in mouse; assay type: ADME, organism-based; settings: in vivo
HepG2 [25] = assay: cells; settings: Homo sapiens, HepG2, 40 h
Description: Cytotoxicity against human HepG2 cells treated for 40 hrs by Cell Titer Glo luminescence assay

[26] = system: Mycobacterium tuberculosis; assay type: functional, H37Rv; settings: dose 100 mg/kg; route po; time 10 day
[27] = Cytotoxicity against African green monkey Vero cells by MTT assay; assay type: toxicity, cell-based; settings: chlorocebus sabaeus
[28] = system: Mycobacterium tuberculosis; assay type: functional, H37Rv; settings: dose 25 mg/kg; route ig; time 3 weeks
HepG2 [29] = assay: Cytotoxicity against human HepG2 cells by MTT assay; assay type: functional
[30] = Inhibition of Mycobacterium tuberculosis ASADH expressed in Escherichia coli BL21

Chain of Voltage-gated inwardly rectifying potassium channel KCNH2 (Q12809 whole entry): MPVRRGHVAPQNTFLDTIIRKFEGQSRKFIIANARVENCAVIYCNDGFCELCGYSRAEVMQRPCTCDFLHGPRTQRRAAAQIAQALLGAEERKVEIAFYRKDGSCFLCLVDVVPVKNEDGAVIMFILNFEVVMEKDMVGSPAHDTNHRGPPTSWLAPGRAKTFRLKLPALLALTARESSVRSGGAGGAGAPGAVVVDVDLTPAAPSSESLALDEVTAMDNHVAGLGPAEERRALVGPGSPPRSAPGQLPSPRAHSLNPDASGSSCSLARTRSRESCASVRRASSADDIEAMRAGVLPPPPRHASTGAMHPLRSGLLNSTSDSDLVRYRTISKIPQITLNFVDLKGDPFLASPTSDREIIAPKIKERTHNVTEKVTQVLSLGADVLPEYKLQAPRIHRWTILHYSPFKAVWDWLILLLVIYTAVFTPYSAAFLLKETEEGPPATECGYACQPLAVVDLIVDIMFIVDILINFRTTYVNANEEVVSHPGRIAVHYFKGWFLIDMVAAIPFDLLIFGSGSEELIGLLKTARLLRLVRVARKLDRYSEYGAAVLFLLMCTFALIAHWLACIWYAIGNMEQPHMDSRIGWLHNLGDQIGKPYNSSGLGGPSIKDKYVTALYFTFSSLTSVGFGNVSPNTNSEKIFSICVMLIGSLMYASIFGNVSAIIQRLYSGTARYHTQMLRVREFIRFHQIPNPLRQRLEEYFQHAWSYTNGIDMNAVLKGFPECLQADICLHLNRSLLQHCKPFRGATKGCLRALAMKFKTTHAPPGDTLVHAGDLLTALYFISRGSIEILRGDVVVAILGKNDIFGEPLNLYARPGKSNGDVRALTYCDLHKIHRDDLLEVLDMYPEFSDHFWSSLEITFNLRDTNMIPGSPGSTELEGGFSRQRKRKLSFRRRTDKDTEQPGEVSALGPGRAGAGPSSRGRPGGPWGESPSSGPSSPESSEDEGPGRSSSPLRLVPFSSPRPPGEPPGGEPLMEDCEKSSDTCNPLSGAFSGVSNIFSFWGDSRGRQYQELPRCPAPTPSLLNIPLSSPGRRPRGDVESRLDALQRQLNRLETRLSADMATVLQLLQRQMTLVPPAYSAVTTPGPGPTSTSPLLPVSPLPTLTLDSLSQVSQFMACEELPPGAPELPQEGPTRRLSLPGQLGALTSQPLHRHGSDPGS

## O=C(/C=C/c1cccs1)N1CCN(Cc2ccc3c(c2)OCO3)CC1
[1]
  Activity: 0.4 log10CFU
[2]
  MIC90: 0.14 µM (≈ 0.0499 µg/mL)
HepG2 [3]
  CC50: 140 µM

## CCCCS(=O)(=O)Nc1ccc2cnn(C)c2c1
[4]
  MIC: 0.8 µM (≈ 0.214 µg/mL)
[5]
  CC50: 170 µM
[6]
  Activity: 2.4 log10CFU
HepG2 [7]
  CC50: > 100 µM
[8]
  IC50: > 50 µM
[9]
  solubility kinetic at 4.5 h: 175 µM (≈ 46.8 µg/mL)
[10]
  half-life: 0.167 h
[11]
  solubility kinetic: > 550 µM
[12]
  Activity: 3.5 log10CFU

## O=C(Nc1cccc2c(=O)cc(-c3nnn[nH]3)oc12)c1ccc(OCCCCc2ccccc2)cc1
[4]
  MIC90: 10 µM (≈ 4.82 µg/mL)
[13]
  Activity: 0.5 log10CFU
[14]
  Ki: 139 µM

## Cc1cc2oc(=O)cc(-c3cccc(N)c3)c2c(C)c1-c1ccc(CN2CCOCC2)cc1
[15]
  MIC99: 0.24 µM (≈ 0.106 µg/mL)
[16]
  Activity: 2 log10CFU

## Nc1nc(N)c(N=O)c(OCC2CCCCC2)n1
[17]
  Activity: 0.9 log10CFU
[18]
  half-life: 1 h

## O=S1(=O)C[C@H](O)[C@@H](N2CCN(c3ccc(F)cc3Cl)CC2)C1
[4]
  MIC: 2.3 µM (≈ 0.802 µg/mL)
HepG2 [7]
  CC50: > 100 µM
[19]
  solubility: 434 µM (≈ 151 µg/mL)
[20]
  Activity: 1.4 log10CFU

## CNC(=O)c1c(-c2ccc(O)cc2)oc2ccc(O)c(CN3CCCCC3)c12
[4]
  MIC90: 0.13 µM (≈ 0.0495 µg/mL)
[21]
  half-life: 1 h
[22]
  Activity: 1.9 log10CFU
physchem
  solubility kinetic at 24 h: 74 µM (≈ 28.2 µg/mL)
In vitro
  CC50 at 48 h: > 100 µM
[23]
  Activity: 0.9 log10CFU

## CCNC(=N)NC(=O)Nc1c(CC)cccc1CC
[24]
  half-life: 6.7 h
HepG2 [25]
  CC50: > 30 µM

## O=C(/C=C/c1nccs1)N1CCN(Cc2ccc3c(c2)OCO3)CC1
[2]
  MIC90: 0.84 µM (≈ 0.3 µg/mL)
[26]
  Activity: 0.9 log10CFU
HepG2 [3]
  CC50: 210 µM

## O=C(Nc1nnc(C2CCCO2)o1)c1ccc([N+](=O)[O-])o1 (centres undefined)
[4]
  MIC: 1.7 µM (≈ 0.5 µg/mL)
[27]
  CC50: > 218 µM
[28]
  Activity: 1.7 log10CFU
HepG2 [29]
  CC50: > 218 µM
[30]
  IC50: 2 µM
